In article PMC10683023, “Targeting Glial Cells by Organic Anion-Transporting Polypeptide 1C1 (OATP1C1)-Utilizing L-Thyroxine-Derived Prodrugs” (Journal of Medicinal Chemistry, 2023):

How the values were obtained:
[1] = Enzymatic bioconversion in mouse primary astrocyte–microglia homogenate; format: in vitro ADME; settings: after 5 h incubation, 100 μM prodrug, 37 °C, mean ± SD, n = 3
Experimental: (§1) The rates of bioactivation of the prodrugs 1–8 in mouse and human liver S9 fractions, as well as in mouse primary astrocyte–microglia homogenate, were determined at +37 °C. The incubation mixtures were prepared by mixing liver S9 subcellular fraction or brain cell homogenate (final protein concentration 1.0 mg/mL) with isotonic Tris–HCl buffer (pH 7.4) and 10 mM prodrug stock solution in DMSO (the initial concentration of prodrugs was 100 μM and the DMSO concentration was […]). The mixture was incubated for 5 h, and the samples ([…]) were withdrawn at appropriate intervals. The enzymatic reaction was terminated by the addition of ice-cold acetonitrile ([…]), and the samples were centrifuged for 5 min at 12 000 rpm at room temperature and kept on ice until the supernatants were analyzed by the HPLC method described below. In blank reactions, the S9 fractions were replaced with the same volume of buffer. The pseudo-first-order half-lives (t1/2) for the rates of bioconversion of the prodrugs were calculated from the slope of the linear portion of the plotted logarithm of the remaining prodrug concentration versus time. The rates of bioactivation of prodrugs 1–8 in human plasma and mouse serum were determined at 37 °C as above by adding 10 mM stock solution of the prodrug to plasma/serum in a ratio of 1:10 and analyzed similarly to the samples from S9 fractions.
(§2) The amount of prodrug 1–8 was determined by the HPLC system, which consisted of an Agilent 1100 binary pump (Agilent Technologies Inc., Wilmington, DE), an 1100 micro vacuum degasser, an HP 1050 Autosampler, and an HP 1050 variable wavelength detector, operated at 230–240 nm. The chromatographic separations were achieved on an Agilent Zorbax SB-C18 analytical column (4.4 mm × 150 mm, 5 μm) (Agilent Technologies Inc., Wilmington, DE) by using isocratic elution of water containing 0.1% formic acid (pH ca. 3.0) and acetonitrile containing 0.1% formic acid with ratios of 50:50, 30:70, 40:60, 50:50, 50:50, 40:60, 40:60, and 30:70 (v/v), respectively, for prodrug 1–8. […] The lower limit of quantification for prodrugs 1–8 was 0.20 μM. These HPLC methods were also accurate, precise, and selective over the range of 0.5–20 μM.

[2] = Enzymatic bioconversion in mouse liver S9 fraction; format: in vitro ADME
Experimental: as §1, §2

[3] = Enzymatic bioconversion in human plasma; format: in vitro ADME; settings: after 5 h incubation, 37 °C, mean ± SD, n = 3
Experimental: as §1, §2

[4] = Enzymatic bioconversion in human liver S9 fraction; format: in vitro ADME
Experimental: as §1, §2

[5] = Enzymatic bioconversion in mouse serum; format: in vitro ADME; settings: after 5 h incubation, 37 °C, mean ± SD, n = 3
Experimental: as §1, §2

[6] = system: human U-87MG glioma cells; experiment: Concentration-dependent cellular uptake into human U-87MG glioma cells; format: cell-based; settings: 5–400 μM, 30 min, 37 °C
Experimental: U-87MG (ATCC, HTB-14, unknown origin) was purchased from Lonza (Basel, Switzerland). The cells were cultured in standard conditions (37 °C, 5% CO2) using Dulbecco’s modified Eagle’s medium (DMEM) supplemented with L-glutamine (2.0 mM), heat-inactivated fetal bovine serum (FBS) (10%), penicillin (50 U/mL), and streptomycin (50 μg/mL). U-87MG cells (passages 8–25) were seeded at a density of 1 × 10^5 cells/well onto 24-well plates and used for the uptake experiments 1 day after seeding. All of the studies were carried out as three biological replicates from the same cell passage.
After removal of the culture medium, U-87MG human glioma cells and mouse primary astrocytes were carefully washed with prewarmed Hank’s balanced salt solution (HBSS) containing 125.0 mM NaCl (or choline chloride in Na^+ free conditions), 4.8 mM KCl, 1.2 mM MgSO4, 1.2 mM KH2PO4, 1.3 mM CaCl2, 5.6 mM glucose, and 25.0 mM 4-(2-hydroxyethyl)piperazine-1-ethanesulfonic acid (HEPES) with the pH adjusted to either 7.4 or pH 8.5 with 1 M NaOH (or KOH in sodium-free conditions). In the experiments at lower pH (4.5–6.5), 25.0 mM HEPES was replaced by 2-(N-morpholino) ethanesulfonic acid (MES), and the pH was adjusted to 4.5, 5.5, and 6.5 by 1.0 M NaOH. Preincubation was done with 500 μL of prewarmed HBSS at 37 °C for 10 min before adding the substrate for the uptake experiments. The functionality of OATP1C1 in human glioma U-87MG cells was studied with a known substrate (L-thyroxine, T4) and of oatp1a4, 1a5, and 1a6 in mouse primary astrocytes with [6,7-^3H(N)]-estrone-3-sulfate (ES) by incubating the uptake solution (250 μL in HBSS) consisting of 5–400 μM of the substrate at 37 °C for 30 min. After incubation, the uptake was stopped by adding 500 μL of ice-cold HBSS, and the cells were washed two times with ice-cold HBSS (2 × 500 μL). The cells were then lysed with 500 μL of 0.1 M NaOH (60 min), the lysate was neutralized, and the protein was precipitated with acidic acetonitrile (ACN with 4.8% formic acid). The supernatants were analyzed by the high-performance liquid chromatography (HPLC) methods described below (T4) or by using a liquid scintillation counter (MicroBeta2 counter, PerkinElmer, Waltham, MA) (ES). The concentrations of T4 and ES were calculated from the spiked standard curve and normalized with the protein concentrations. The protein concentrations on each plate were determined as a mean of three samples by Bio-Rad Protein Assay, based on the Bradford dye-binding method, using bovine serum albumin (BSA) as a standard protein and measuring the absorbance (595 nm) by a multiplate reader (EnVision, PerkinElmer, Inc., Waltham, MA). The OATP-mediated uptake was confirmed by changing the pH of the uptake buffer in the absence of sodium ions, and in the case of OATP1C1 in human U-87MG cells, the uptake of T4 (100 μM) was studied in the presence of competing OATP1C1-ligands, diclofenac and flufenamic acid (100 μM), and in the case of oatp1a4/1a5/1a6 in mouse primary astrocytes, the uptake of ES (100 μM) was studied in the presence of competing OATO1A2-ligand, naringin (100 μM).
Cellular uptake of prodrugs 1–8 was studied as described for L-thyroxine above by adding compounds at a concentration of 5–400 μM in prewarmed HBSS buffer (250 μL) on the cell layer and incubating at 37 °C for 30 min (uptake was linear with all compounds up to 30 min). Subsequently, the cells were washed three times with ice-cold HBSS and lysed with 500 μL of 0.1 M NaOH (60 min). The lysate was neutralized; the proteins were precipitated with acidic ACN (containing 4.8% formic acid), and the supernatants were analyzed by the (HPLC) methods described below. The concentrations of each prodrug normalized to protein concentration were calculated from the standard curve prepared by spiking known concentrations of compounds into ACN-precipitated cell lysate. […]

[7] = after 5 h incubation, 100 μM prodrug, 37 °C, mean ± SD, n = 3

- Enzymatic stability, remaining percentage, mouse brain cell homogenate [1]: 92.98 ± 6.14%
- Bioconversion rate in mouse liver S9 relative to the corresponding T4 derivative ([2]; DIT prodrug faster than T4 prodrug): 2 times
- Enzymatic stability, remaining percentage, mouse liver S9 [2, 7]: 38.26 ± 4.49%
- half-life at 100 µM ([2]; mouse, pH 7.4, liver S9 fraction, 37 °C, mean ± SD, n = 3, read-out: Enzymatic bioconversion half-life t1/2, mouse liver): 4.15 ± 0.761 h
- Enzymatic stability, remaining percentage, human plasma [3]: 70.94 ± 29.06%
- Bioconversion rate in human liver, slower than that of prodrug 6 [4]: around 10%
- Enzymatic stability, remaining percentage, human liver S9 [4, 7]: 69.44 ± 2.10%
- Enzymatic stability, remaining percentage, mouse serum [5]: 96.75 ± 3.25%
SMILES: COc1ccc2cc([C@H](C)C(=O)Oc3c(I)cc(C[C@H](N)C(=O)O)cc3I)ccc2c1 [Prodrug 5, (S)-2-Amino-3-(3,5-diiodo-4-(((S)-2-(6-methoxynaphthalen-2-yl)propanoyl)oxy)phenyl)propanoic acid]
- Km [6]: 138 ± 79 µM
- Vmax, cellular uptake, U-87MG [6]: 9.0 nmol/min/mg
- Vmax, cellular uptake, U-87MG ([6]; listed as PD5): 9.0 ± 3.7 nmol/min/mg
